In US20120095024A1, “TOLUIDINE SULFONAMIDES AND THEIR USE” (Elara Pharmaceuticals GmbH, priority 2008, published 2012) one finds EC50 and IC50 data, which are given here for 24 molecules.

Assay [1] concerns MCF7 cells. The assay can be described thus: Cell proliferation assay (ATPlite), MCF-7. In kind it is cell-based, human. The following applies: Homo sapiens, inhibition of cell proliferation, 72 h. On the procedure:
MCF-7 human breast adenocarcinoma cells and HL-60 acute promyelocytic leukaemia cells were obtained from ATCC (LGC Promochem). HG-1 multiple myeloma cells were obtained from Dr. D. Hose (DKFZ Heidelberg). The CellSensor® HRE-bla HCT116 cell line (colorectal carcinoma) was obtained from Invitrogen.
Cells were grown under humidified 95% air, 5% CO2 at 37° C. in Dulbecco's modified Eagle's medium (DMEM: MCF-7) or RPMI 1640 medium (RPMI: HL-60, HG-1) supplemented with 10% fetal bovine serum (FBS), 100 U/ml penicillin and 100 μg/ml streptomycin, 2 mM L-glutamine, and 2 ng/ml IL-6 (for the HG-1 cell line only). The HCT116 cell line was grown under the same atmospheric conditions in McCoy's 5A medium supplemented with 10% FBS and penicillin/streptomycin as above, in addition to blasticidin as a selection marker at a final concentration of 5 μg/ml.
Cell proliferation experiments were carried out in 96-well tissue culture plates with seeding of 2000 cells/well (MCF-7) or 1000 cells/well (HL-60, HG-1) in 100 μl of the relevant medium. Cells were subsequently incubated under the conditions mentioned for 24 h prior to addition of compounds.
For the determination of compound EC50 values, 10 μl compounds at 11× concentrations in 5.5% DMSO were added to the wells at various concentrations yielding a final constant percentage of 0.5% DMSO at the desired 1× compound concentration. As a positive control, cells were treated with 5.5% DMSO. The cells were then incubated for a further 72 h prior to the measurement.
To determine the degree of inhibition of cell proliferation, cells were treated with ATPlite solution according to the manufacturer's instructions (PerkinElmer, ATPlite 1-step Luminescence ATP Detection Assay System) and luciferase readout measured on an Envision HTS multilabel plate reader (PerkinElmer) in luminescence mode according to established protocols. Raw data were imported into an ActivityBase database (IDBS, ID Business Solutions) and EC50 values calculated using the IDBS program ActivityBase XE. Table 2A and 2B show the IC50 values obtained in the above-outlined cell proliferation assay for exemplary compounds of the invention.
Background: Cellular ATP, detected with luciferase, serves as a proxy for viable cell number.

In assay [2] the test system is HIF mediated transcription. The assay can be described thus: Inhibition of activation of HIF mediated transcription under hypoxic conditions (CellSensor HRE-bla HCT-116). The following applies: Homo sapiens; HRE-bla HCT-116 cells, deferoxamine-induced hypoxia, 24 h. In kind it is cell-based. As to the method:
Inhibition of an activated HIF signaling response under chemically-induced hypoxic conditions due to compound treatment was determined using the CellSensor® HRE-bla HCT-116 stably transfected reporter cell line from Invitrogen according to the manufacturer's instructions. HIF is a transcriptional factor composed of the constitutively expressed HIF1β subunit and one of three HIFα subunits (HIF1α, HIF2α, HIF3α). This assay is responsive towards HIFa activity in general. In one example, HIF-1, when stabilized by hypoxic conditions, upregulates several genes to promote cell survival in low-oxygen conditions. These include glycolysis enzymes, which allow ATP synthesis in an oxygen-independent manner, and vascular endothelial growth factor (VEGF), which promotes angiogenesis. HIF-1 acts by binding to HIF-responsive elements (HREs) in promoters that generally contain the sequence NCGTG.
Cells were maintained as described previously and seeded into 384-well, clear-bottom plates (Corning 3712) at 15000 cells/well in 32 μl assay medium (Opti-MEM [Invitrogen], 0.5% FBS, 100 U/ml penicillin, 100 μg/ml streptomycin, 0.1 mM non-essential amino acids [NEAA], 1 mM sodium pyruvate, 5 mM HEPES [pH 7.3]). Following a 2 h incubation period, compounds (4 μl) were subsequently added to the cells at 10× concentrations in 5% DMSO and incubated under normal conditions for 30 min. To induce hypoxic conditions, 4 μl of a 2 mM deferoxamine (DFO) solution was added to the cells followed by 24 h incubation under standard assay conditions (as described). Control wells included wells containing only medium (no cells) and wells treated with 0.5% DMSO instead of compound.
Prior to the readout, the Substrate Loading Solution was prepared as described in the manufacturer's protocol and 10 μl added to each well. Following a further 2 h incubation period at room temperature and in the dark, fluorescence was measured at two wavelengths (blue channel: ex. 409 nm, em. 460 nm; green channel: ex. 409 nm, em. 530 nm) on a PerkinElmer Envision HTS. For the analysis, the average signal of the cell-free wells at 460 nm and 530 nm was first subtracted from the blue and green channel data, respectively. The blue/green emission ratios were then calculated for each well, dividing the background-corrected blue emission values by the background-corrected green emission values. IC50 values were determined from these ratios using GraphPad Prism (Prism 5, GraphPad software, Inc.).

For assay [3], the system named is estrogen receptor (ER)-mediated transcriptional activity. The experiment in a line: Inhibition of estrogen receptor (ER) signaling, ERE-tk-luc transfection assay in MCF-7 cells. The assay is classed as cell-based. The following applies: Homo sapiens, MCF7, ERE-tk-luc luciferase readout, 24 h. On the procedure:
To determine the effect of the compounds on estrogen receptor (ER)-mediated transcriptional activity a transfection assay using the MCF-7 cell line was performed. A luciferase-coupled ERE-tk-luc construct was obtained from Dr. G. Reid (EMBL).
In brief, MCF-7 cells were maintained as described previously and seeded on the first experimental day at a concentration of 3500 cells/well in 100 μl medium and incubated under standard conditions for 24 h. Following this initial incubation period, transfection was carried out using 5 ng of the ERE-tk-luc construct (per well) and Exgene 500 transfection reagent (Fermentas) in a final buffered solution containing 150 mM NaCl and 20 mM Tris pH 8.4. The plates were then maintained for 3-4 hours until cell culture conditions in the incubator before compounds were added at 11× concentrations to yield the final desired compound concentrations in 0.5% DMSO (in the same manner as for the proliferation assays described previously).
After an additional 24 h incubation period the degree of inhibition of ER-signaling was determined via a luciferase readout. Cells were treated with Britelite™ plus solution according to the manufacturer's instructions (PerkinElmer, britelite plus, Ultra-High Sensitivity Luminescence Reporter Gene Assay System) and luciferase levels measured on an Envision HTS multilabel plate reader (PerkinElmer) in luminescence mode according to established protocols. Raw data were imported into an ActivityBase database (IDBS, ID Business Solutions) and IC50 values calculated using the IDBS program ActivityBase XE.

As a reminder, the EC50 is the concentration at which the effect is half-maximal. Higher therefore signals a need for much substance. The term IC50 denotes the point on the concentration scale where inhibition reaches its midpoint. Lower therefore signals higher potency.

For `COc1ccc(S(=O)(=O)Nc2cc(-c3ccc(C#N)c(OC)c3)ccc2C)cc1F` [Example 103, N-(4′-cyano-3′-methoxy-4-methylbiphenyl-3-yl)-3-fluoro-4-methoxybenzenesulfonamide], the EC50 in assay [1] and in assay [2] was under 500 nM throughout.

Molecule `Cc1ccc(S(=O)(=O)Nc2cc(-c3ccco3)ccc2C)cc1` [Example 4, N-(5-Furan-2-yl-2-methyl-phenyl)-4-methyl-benzenesulfonamide] displayed an IC50 in assay [3] of under 500 nM. The molecule further returned an EC50 in assay [1] of under 500 nM.

As to `Cc1ccc(S(=O)(=O)Nc2cc(-c3csc(C#N)c3)ccc2C)cc1F` [Example 95, N-(5-(5-cyanothiophen-3-yl)-2-methylphenyl)-3-fluoro-4-methylbenzenesulfonamide], the EC50 in assay [1] and in assay [2] was under 500 nM in each case.

Regarding `Cc1cc(S(=O)(=O)Nc2cc(-c3ccc(C#N)s3)ccc2C)ccc1F` [Example 112, N-(5-(5-cyanothiophen-2-yl)-2-methylphenyl)-4-fluoro-3-methylbenzenesulfonamide], the half-maximal effective concentration (EC50) in assay [1] and in assay [2] was under 500 nM in each case.

As to `Cc1ccc(S(=O)(=O)Nc2cc(-c3ccc(C#N)c(F)c3)ccc2C)cc1` [Example 71, N-(4′-Cyano-3′-fluoro-4-methyl-biphenyl-3-yl)-4-methyl-benzenesulfonamide], the EC50 in assay [1] and in assay [2] was under 500 nM throughout.

`Cc1ccc(S(=O)(=O)Nc2cc(-c3csc(C#N)c3)ccc2C)cc1` [Example 68, N-[5-(5-Cyano-thiophen-3-yl)-2-methyl-phenyl]-4-methyl-benzenesulfonamide]: the EC50 in assay [1] and in assay [2] was under 500 nM each time.

For `Cc1ccc(-c2ccc(C#N)s2)cc1NS(=O)(=O)c1ccc2c(c1)OCO2` [Example 114, N-(5-(5-cyanothiophen-2-yl)-2-methylphenyl)benzo[d][1,3]dioxole-5-sulfonamide], the EC50 in assay [1] and in assay [2] was under 500 nM in each case.

`COc1ccc(S(=O)(=O)Nc2cc(-c3ccc(C#N)s3)ccc2C)cc1C` [Example 109, N-(5-(5-cyanothiophen-2-yl)-2-methylphenyl)-4-methoxy-3-methylbenzenesulfonamide] returned a half-maximal effective concentration (EC50) in assay [1] of under 500 nM.

On to `COc1nccc(-c2ccc(C)c(NS(=O)(=O)c3ccc(C)cc3)c2)n1` [Example 107, N-(5-(2-methoxypyrimidin-4-yl)-2-methylphenyl)-4-methylbenzenesulfonamide], for which the EC50 in assay [1] lay in the range of 1000 to 10000 nM.

`COc1ccc(S(=O)(=O)Nc2cc(-n3cc(C)cc3C)ccc2C)cc1` [Example 40, N-[5-(2,4-Dimethyl-pyrrol-1-yl)-2-methyl-phenyl]-4-methoxy-benzenesulfonamide] yielded an EC50 in assay [1] of 1000 to 10000 nM.

In assay [1], `COc1cc(-c2ccc(C)c(NS(=O)(=O)c3ccc(N)cc3)c2)ccc1C#N` [Example 102, 4-amino-N-(4′-cyano-3′-methoxy-4-methylbiphenyl-3-yl)benzenesulfonamide] gave an EC50 of under 500 nM.

With `COc1cc(-c2ccc(C)c(NS(=O)(=O)c3ccc([N+](=O)[O-])cc3)c2)ccc1C#N` [Example 101, N-(4′-cyano-3′-methoxy-4-methylbiphenyl-3-yl)-4-nitrobenzenesulfonamide], in assay [1], the EC50 is 1000 to 10000 nM.

On to `Cc1ccc(-c2ccc(C#N)cc2)cc1NS(=O)(=O)c1ccc(N)c(F)c1` [Example 110, 4-amino-N-(4′-cyano-4-methylbiphenyl-3-yl)-3-fluorobenzenesulfonamide], for which, in assay [1], the EC50 was under 500 nM.

As for `COc1ccc(S(=O)(=O)Nc2cc(-c3ccccc3C#N)ccc2C)cc1` [Example 58, N-(2′-Cyano-4-methyl-biphenyl-3-yl)-4-methoxy-benzenesulfonamide], in assay [1], the EC50 was 500 to 1000 nM.

The molecule `Cc1ccc(S(=O)(=O)Nc2cc(-c3cc(C)cc(C)n3)ccc2C)cc1` [Example 67, N-[5-(4,6-Dimethyl-pyridin-2-yl)-2-methyl-phenyl]-4-methyl-benzenesulfonamide] displayed an EC50 in assay [1] of 1000 to 10000 nM.

In turn, `Cc1ccc(-c2ccc(C#N)s2)cc1NS(=O)(=O)c1ccc(C(F)(F)F)cc1` [Example 78, N-[5-(5-Cyano-thiophen-2-yl)-2-methyl-phenyl]-4-trifluoromethyl-benzenesulfonamide] yielded an EC50 in assay [1] of 500 to 1000 nM.

`Cc1ccc(S(=O)(=O)Nc2cc(-c3cc(C(F)(F)F)ccn3)ccc2C)cc1` [Example 38, 4-Methyl-N-[2-methyl-5-(4-trifluoromethyl-pyridin-2-yl)-phenyl]-benzenesulfonamide] had an EC50 in assay [1] of 1000 to 10000 nM.

`Cc1ccc(S(=O)(=O)Nc2cc(-c3sccc3C)ccc2C)cc1` [Example 24, 4-Methyl-N-[2-methyl-5-(3-methyl-thiophen-2-yl)-phenyl]-benzenesulfonamide] had an EC50 in assay [1] of under 500 nM.

In assay [1], `Cc1ccc(S(=O)(=O)Nc2cc(-n3cnnn3)ccc2C)cc1` [Example 2, 4-Methyl-N-(2-methyl-5-tetrazol-1-yl-phenyl)-benzenesulfonamide] came in with an EC50 of 1000 to 10000 nM.

For the molecule `COc1ccc(S(=O)(=O)Nc2cc(-n3cccc3C)ccc2C)cc1` [Example 50, 4-Methoxy-N-[2-methyl-5-(2-methyl-pyrrol-1-yl)-phenyl]-benzenesulfonamide], in assay [1], the half-maximal effective concentration (EC50) is under 500 nM.

As to `Cc1ccc(S(=O)(=O)Nc2cc(-c3ccc([N+](=O)[O-])cn3)ccc2C)cc1` [Example 55, 4-Methyl-N-[2-methyl-5-(5-nitro-pyridin-2-yl)-phenyl]-benzenesulfonamide], the EC50 in assay [1] was under 500 nM.

For the molecule `COc1ccc(S(=O)(=O)Nc2cc(-c3ccc(C#N)c(O)c3)ccc2C)cc1` [Example 90, N-(4′-Cyano-3′-hydroxy-4-methyl-biphenyl-3-yl)-4-methoxy-benzenesulfonamide], the EC50 in assay [1] is under 500 nM.

In assay [1], `Cc1ccc(S(=O)(=O)Nc2cc(-c3ncccc3C)ccc2C)cc1` [Example 28, 4-Methyl-N-[2-methyl-5-(3-methyl-pyridin-2-yl)-phenyl]-benzenesulfonamide] showed an EC50 of 1000 to 10000 nM.

Consider `COc1cccc(-c2ccc(C)c(NS(=O)(=O)c3ccc(C)cc3)c2)n1` [Example 9, N-[5-(6-Methoxy-pyridin-2-yl)-2-methyl-phenyl]-4-methyl-benzenesulfonamide], for which the concentration giving a half-maximal response (EC50) in assay [1] was in the range of 500 to 1000 nM.
